Source: PMC11070508, “Design, synthesis, molecular docking, and molecular dynamic studies of novel quinazoline derivatives as phosphodiesterase 7 inhibitors” (Frontiers in Pharmacology, 2024)
Entries after “also recorded” stand apart in the source; their conditions may differ. Where two headings read alike, the source gives them in different places.

What was measured:
PDE7 = conditions: cited from earlier work
PDE7A = target: T1, PDE7A (Homo sapiens, UniProt Q13946); experiment: In vitro PDE7A inhibitory activity assay (fluorescence polarization PDE7A Assay Kit, BPS Bioscience); format: biochemical; conditions: for IC50: fluorescence polarization kit
T1 construct: purchased BPS Bioscience 60373
Procedure: The inhibitory activity of the compounds was determined as half maximal inhibitory concentration IC50 in μM ([Malik et al., 2008]; [Pekkinen et al., 2008]).
All the newly synthesized compounds 4a-h and 5a-h were evaluated for in vitro PDE7A inhibitory activity using a fluorescence polarization PDE7A Assay Kit (Catalog no. 60373; BPS Bioscience) ([Malik et al., 2008]; [Pekkinen et al., 2008]). The assay is based on the binding of fluorescent nucleotide, a monophosphate generated by PDE7A to the binding agent. PDE7A catalyzes the hydrolysis of the phosphodiester bond in dye-labeled cyclic adenosine monophosphate (cAMP). Nanoparticle beads selectively bind the phosphate group in the nucleotide product. This increases the size of the nucleotide relative to unreacted cAMP. Since the degree of polarization of a fluorophore is inversely related to its molecular rotation, dyes attached to the slowly rotating nucleotide-bead complexes will not have time to reorient and therefore will emit highly polarized light. Conversely, dyes attached to the rapidly rotating cyclic monophosphates will obtain random orientations and emit light with low polarization.
The PDE7A inhibitor screening assay kit comes in a convenient 384-well format, including purified PDE7A enzyme, fluorescently labeled PDE7A substrate (cAMP), binding agent, and PDE assay buffer for 384 enzyme reactions. The key to the PDE7A Assay Kit is the specific binding agent. Using this kit, only two simple steps on a microtiter plate are required for PDE7A reactions. First, the fluorescently labeled cAMP is incubated with a sample containing PDE7A for 1 h. Second, a binding agent is added to the reaction mix to produce a change in fluorescent polarization that can then be measured using a fluorescence reader. The microtiter plate reader is capable of excitation at wavelengths ranging from 485 ± 15 nm and detection of emitted light ranging from 528 ± 10 nm. […] The inhibitory activity of the tested compounds was determined as half maximal inhibitory concentration IC50 in μM compared to the two reference standards.
This in vitro testing assay was carried out at the confirmatory diagnostic unit, Vacsera, Egypt, and the results are presented in Table 1 and represented in Figure 2. […] Halogen atoms are lipophilic substituents commonly used in the design of novel biologically active molecules.

T1 sequence (Q13946 whole entry): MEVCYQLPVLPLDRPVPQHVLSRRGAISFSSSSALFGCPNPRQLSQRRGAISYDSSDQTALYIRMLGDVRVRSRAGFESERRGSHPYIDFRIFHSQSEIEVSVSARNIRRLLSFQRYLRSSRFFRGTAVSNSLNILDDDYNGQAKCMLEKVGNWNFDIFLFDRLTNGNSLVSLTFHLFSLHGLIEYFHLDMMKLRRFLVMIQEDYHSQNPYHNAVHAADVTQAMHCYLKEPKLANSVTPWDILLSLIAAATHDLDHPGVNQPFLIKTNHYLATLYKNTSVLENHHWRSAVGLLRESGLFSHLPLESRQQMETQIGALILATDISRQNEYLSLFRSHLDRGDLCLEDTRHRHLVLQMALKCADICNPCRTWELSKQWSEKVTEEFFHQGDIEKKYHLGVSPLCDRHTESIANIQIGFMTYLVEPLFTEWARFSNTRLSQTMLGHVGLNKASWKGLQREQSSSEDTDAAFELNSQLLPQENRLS

Compound | IC50 (PDE7A) [µM] | PDE7A inhibitory activity (result in words) (PDE7A) | melting point [°C] | IC50 (PDE7; ref Elfeky et al., 2020) [nM] | IC50 (PDE7; ref Sánchez et al., 2013) [nM]
O=c1[nH]c(=S)[nH]c2cc(F)c(F)cc12 [A] |  |  |  | 70 | 
Cn1c(-c2ccoc2)nc(=O)c2ccccc21 [B] |  |  |  | 90 | 
CC(C)c1nc(SCc2ccc(-c3ccccc3-c3nnn[nH]3)cc2)c2ccccc2n1 [C] |  |  |  |  | 770
OCc1ccc(C=NNc2nc(Cl)nc3ccccc23)o1 [Compound 4a, 2-Chloro-4-[2-(5-hydroxymethyl-2-furylmethylene)hydrazino]quinazoline] | 0.653 | among the least effective compounds | > 280 |  | 
Clc1nc(NN=Cc2cccnc2)c2ccccc2n1 [Compound 4b, 2-Chloro-4-[2-(3-pyridylmethylene)hydrazino]quinazoline] | 0.114 | good potency; also recorded: high PDE7 inhibitory potencies; also recorded: highest selective PDE7A inhibitors | < 280 |  | 
Clc1nc(NN=Cc2c[nH]c3ccc(Br)cc23)c2ccccc2n1 [Compound 4c, 4-[2-(5-bromo-1H-3-indolylmethylene)hydrazino]-2-chloroquinazoline] | 0.478 |  | 238 to 240 |  | 
OCc1ccc(C=NNc2nc(Cl)nc3ccc(Cl)cc23)o1 [Compound 4e, 2,6-Dichloro-4-[2-(5-hydroxymethyl-2-furylmethylene)hydrazino]quinazoline] | 1.97 | among the least effective compounds | < 280 |  | 
Clc1ccc2nc(Cl)nc(NN=Cc3cccnc3)c2c1 [Compound 4f, 2,6-Dichloro-4-[2-(3-pyridylmethylene)hydrazino]quinazoline] | 0.343 | high PDE7 inhibitory potencies | 198 to 200 |  | 
Clc1ccc2nc(Cl)nc(NN=Cc3c[nH]c4ccc(Br)cc34)c2c1 [Compound 4g, 4-[2-(5-bromo-1H-3-indolylmethylene)hydrazino]-2,6-dichloroquinazoline] | 0.15 | good potency; also recorded: good activity | < 280 |  | 
Clc1ccc2nc(Cl)nc(NN=Cc3ccnc4ccccc34)c2c1 [Compound 4h, 2,6-Dichloro-4-[2-(4-quinolinylmethylene)hydrazino]quinazoline] | 0.627 | very low PDE7 inhibitory effect | < 280 |  | 
Clc1nc2ccccc2c2nnc(-c3c[nH]c4ccc(Br)cc34)n12 [Compound 5c, 3-(5-Bromo-3-indolyl)-5-chloro-1,2,4-triazolo[4,3-c]quinazoline] | 0.18 | good potency; also recorded: good activity | 200 to 202 |  | 
Clc1nc2ccccc2c2nnc(-c3ccnc4ccccc34)n12 [Compound 5d, 5-Chloro-3-(4-quinolinyl)-1,2,4-triazolo[4,3-c]quinazoline] | 0.894 | very low PDE7 inhibitory effect | 220 to 222 |  | 
OCc1ccc(-c2nnc3c4cc(Cl)ccc4nc(Cl)n23)o1 [Compound 5e, 5,9-Dichloro-3-(5-hydroxymethyl-2-furyl)-1,2,4-triazolo[4,3-c]quinazoline] | 1.34 | among the least effective compounds | < 280 |  | 
Clc1ccc2nc(Cl)n3c(-c4cccnc4)nnc3c2c1 [Compound 5f, 5,9-Dichloro-3-(3-pyridyl)-1,2,4-triazolo[4,3-c]quinazoline] | 0.142 | good potency; also recorded: high PDE7 inhibitory potencies; also recorded: highest selective PDE7A inhibitors | 219 to 221 |  | 
Clc1ccc2nc(Cl)n3c(-c4c[nH]c5ccc(Br)cc45)nnc3c2c1 [Compound 5g, 3-(5-Bromo-3-indolyl)-5,9-dichloro-1,2,4-triazolo[4,3-c]quinazoline] | 0.407 | good activity | > 280 |  | 
Clc1ccc2nc(Cl)n3c(-c4ccnc5ccccc45)nnc3c2c1 [Compound 5h, 5,9-Dichloro-3-(4-quinolinyl)-1,2,4-triazolo[4,3-c]quinazoline] | 1.8 | very low PDE7 inhibitory effect | < 280 |  | 
CC(C)c1nc(SCc2ccc(-c3ccc(C(=O)O)cc3)cc2)c2ccccc2n1 [D] |  |  |  |  | 930

Now from value to compound, other results behind:

IC50 (PDE7A) [µM] | PDE7A inhibitory activity (result in words) (PDE7A) | melting point [°C] | Compound | IC50 (PDE7; ref Elfeky et al., 2020) [nM] | IC50 (PDE7; ref Sánchez et al., 2013) [nM]
0.32 | high PDE7 inhibitory potencies | > 280 | Clc1nc2ccccc2c2nnc(-c3cccnc3)n12 [Compound 5b, 5-Chloro-3-(3-pyridyl)-1,2,4-triazolo[4,3-c]quinazoline] |  | 
0.251 |  | > 280 | OCc1ccc(-c2nnc3c4ccccc4nc(Cl)n23)o1 [Compound 5a, 5-Chloro-3-(5-hydroxymethyl-2-furyl)-1,2,4-triazolo[4,3-c]quinazoline] |  | 
0.249 |  | 205 to 207 | Clc1nc(NN=Cc2ccnc3ccccc23)c2ccccc2n1 [Compound 4d, 2-Chloro-4-[2-(4-quinolinylmethylene)hydrazino]quinazoline] |  | 
0.034 |  |  | Cc1ccc([N+](=O)[O-])cc1S(=O)(=O)N(C)C [BRL50481, reference compound] |  | 
